Data taken from patent US20230233543A1, “COMPOUNDS FOR THE TREATMENT OF COVID-19” (Dompe' Farmaceutici SPA, priority 2020, published 2023).
Where a name gives a salt, the structure may show the parent alone. Read-outs that look alike come from different tables or passages of the source.

Key:
[1] = tested on: SARS-CoV-2 (BetaCov/Belgium/GHB-03021/2020) in VeroE6-EGFP cells; experiment: microbe, parasite or virus in culture; format: cell-based; conditions: for IC50: Severe acute respiratory syndrome coronavirus 2
[2] = molecular target: SARS-CoV-2 3CL-Pro (Severe acute respiratory syndrome coronavirus 2, UniProt P0DTD1); experiment: biochemical; conditions: read-out: 3CL-Pro Inhibition [%]
[3] = molecular target: SARS-CoV-2 PLpro (Severe acute respiratory syndrome coronavirus 2, UniProt P0DTD1); experiment: PLpro enzymatic assay (ISG15-AMC substrate); format: biochemical; conditions: read-out: PL_Pro Inhibition [%]

Structure (SMILES) | % Confluence [1] [%] | % Inhibition [1] [%] | IC50 ([1]; read-out: IC50) [µM] | inhibition at 20 µM [2] [%] | inhibition at 20 µM [3] [%] | IC50 [1] [µM] | inhibition at 20 µM ([2]; primary screen at 20 µM, without DTT, read at 15 min, normalized to zinc pyrithione (100%) and DMSO (0%)) [%]
c1ccc2c(c1)Sc1ccccc1N2C[C@H]1CN2CCC1CC2 (stereo in doubt) [Mequitazine, 10-(Quinuclidin-3-ylmethyl)-10H-phenothiazine] | 61.74 | 62.09 | 5.99 | – | – | – | –
Cc1cc(O)c2c(=O)c3c(O)cc(O)c4c5c(O)cc(O)c6c(=O)c7c(O)cc(C)c8c1c2c(c34)c(c78)c65 [Hypericin, 1,3,4,6,8,13-Hexahydroxy-10,11-dimethylphenanthro[1,10,9,8-opqra]perylene-7,14-dione] | 20.85 | – | – | 45.7 | 40.1 | 0.25 | –
CC(C)c1ccc2c(c1)C(N1CCN(CCO)CC1)Cc1ccc(F)cc1S2 (centres unmarked) [Isofloxythepin, 2-[4-(9-fluoro-3-propan-2-yl-5,6-dihydrobenzo[b][1]benzothiepin-5-yl)piperazin-1-yl]ethanol] | 67.67 | 35.39 | 106 | – | – | – | –
CC(C)(C)NCc1ccc(Nc2ccnc3cc(Cl)ccc23)cc1O [N-tert-Butylisoquine, 2-[(tert-butylamino)methyl]-5-[(7-chloroquinolin-4-yl)amino]phenol] | 77.86 | 44.99 | – | – | – | – | –
Nc1ccc2cc3ccc(N)cc3nc2c1 [Proflavine, 3,6-diaminoacridine] | 8.56 | 208.4 | – | – | – | – | 89.9
O=C(c1ccc(OCCN2CCCCC2)cc1)c1c(-c2ccc(O)cc2)sc2cc(O)ccc12 [Raloxifen hydrochloride, 1-[6-Hydroxy-2-(4-hydroxyphenyl)benzo[b]thien-3-yl]-1-[4-[2-(1-piperidinyl)ethoxy]phenyl]methanone] | 45.26 | 70.75 | 9.78 | – | – | – | –
CC(C)(Sc1cc(C(C)(C)C)c(O)c(C(C)(C)C)c1)Sc1cc(C(C)(C)C)c(OC(=O)CCC(=O)O)c(C(C)(C)C)c1 [Succinobucol, Succinic acid 2,6-di-tert-butyl-4-[1-(3,5-di-tert-butyl-4-hydroxyphenylsulfanyl)-1-methylethylsulfanyl]phenyl monoester] | 18.73 | 37.53 | – | – | – | – | –
